Data: patent publication US3962427A, “Antibiotic nebramycin factor VII” (Eli Lilly and Company, priority 1974, dated 1976)

Key:
[1] = system: Pseudomonas species; details: cited from earlier work
[2] = system: Pseudomonas aeruginosa PI21; test: Agar dilution MIC, Antibiotic Spectrum of Nebramycin VII; format: cell-based
[3] = system: Pseudomonas cepacia 5629; test: as above; format: cell-based
[4] = system: Pseudomonas aeruginosa PS15; test: as above; format: cell-based
[5] = system: Pseudomonas solanacearum X185; format: cell-based; details: agar dilution
[6] = system: Pseudomonas aeruginosa PI12; test: Agar dilution MIC, Antibiotic Spectrum of Nebramycin VII; format: cell-based
[7] = system: Proteus vulgaris PR28; test: as above; format: cell-based
[8] = system: Enterobacter cloacae EB5; test: as above; format: cell-based
[9] = system: Staphylococcus aureus 3055; test: as above; details: Staphylococcus aureus 3055, Penicillin G sensitive strain
[10] = system: Pseudomonas pseudomallei 121; format: cell-based; details: agar dilution
[11] = system: Proteus rettgeri PR7; test: Agar dilution MIC, Antibiotic Spectrum of Nebramycin VII; format: cell-based
[12] = system: Proteus mirabilis PR3; test: as above; format: cell-based
[13] = system: Pseudomonas aeruginosa PS9; test: as above; format: cell-based
[14] = system: Enterobacter aerogenes EB4; test: as above; format: cell-based
[15] = system: Proteus vulgaris PR27; test: as above; format: cell-based
[16] = system: Providencia sp. 439; test: as above; format: cell-based
[17] = system: Pseudomonas maltophilia 438; test: as above; format: cell-based
[18] = system: Pseudomonas aeruginosa PS34; test: as above; format: cell-based
[19] = system: Proteus morganii PR1; test: as above; format: cell-based
[20] = system: Pseudomonas aeruginosa PI37; test: as above; format: cell-based
[21] = system: Pseudomonas aeruginosa PI23; test: as above; format: cell-based
[22] = system: Enterobacter cloacae EB8; test: as above; format: cell-based
[23] = system: Staphylococcus aureus 3130; test: as above; details: Staphylococcus aureus 3130, Methicillin resistant strain
[24] = system: Streptococcus sp. (group D) 9960; test: as above; format: cell-based
[25] = Toxicity in words
[26] = system: Escherichia coli EC2; test: Agar dilution MIC, Antibiotic Spectrum of Nebramycin VII; format: cell-based
[27] = system: gram negative organisms; test: Antibacterial activity of nebramycin VII in words; format: cell-based
[28] = system: Pseudomonas aeruginosa PS14; test: Agar dilution MIC, Antibiotic Spectrum of Nebramycin VII; format: cell-based
[29] = system: Staphylococcus aureus 3074; test: as above; details: Staphylococcus aureus 3074, Penicillin G resistant strain
[30] = system: Escherichia coli EC8; test: as above; format: cell-based
[31] = system: Proteus rettgeri PR2; test: as above; format: cell-based
[32] = Solubility; format: physicochemical
[33] = system: Proteus mirabilis PR11; test: Agar dilution MIC, Antibiotic Spectrum of Nebramycin VII; format: cell-based
[34] = system: Pseudomonas aeruginosa PS10; test: as above; format: cell-based
[35] = system: Streptococcus sp. (group D) 9901; test: as above; format: cell-based
[36] = system: Pseudomonas cepacia 3189; test: as above; format: cell-based
[37] = system: Pseudomonas aeruginosa PI24; test: as above; format: cell-based
[38] = system: Pseudomonas aeruginosa PI27; test: as above; format: cell-based
[39] = system: Serratia marcescens SE3; test: as above; format: cell-based
[40] = system: Enterobater aerogenes EB2; test: as above; format: cell-based
[41] = system: Pseudomonas aeruginosa PI1; test: as above; format: cell-based
[42] = system: Proteus morganii PR15; test: as above; format: cell-based

CN[C@@H]1[C@@H](O[C@H]2O[C@H](CO)[C@@H](N)[C@H](O)[C@H]2O)OC2C[C@@H](N)[C@@H](O[C@H]3[C@H](O)[C@@H](O)[C@H](N)C[C@@H]3N)OC2[C@@H]1O (some centres unmarked) [Nebramycin II]
antibiotic activity against Pseudomonas species [1]: antibiotic activity

CN[C@@H]1[C@@H](O[C@H]2O[C@H](CO)[C@@H](N)[C@H](O)[C@H]2O)O[C@H]2[C@H](O)[C@@H](N)[C@@H](O[C@H]3[C@H](O)[C@@H](O)[C@H](N)C[C@@H]3N)O[C@@H]2[C@@H]1O [Nebramycin VII]
Minimum Inhibitory Concentration [2]: > 256 µg/mL | Minimum Inhibitory Concentration [3]: 128 µg/mL | Minimum Inhibitory Concentration [4]: 8 µg/mL | Minimum Inhibitory Concentration [5]: 4 µg/mL | Minimum Inhibitory Concentration [6]: 16 µg/mL | Minimum Inhibitory Concentration [7]: 8 µg/mL | Minimum Inhibitory Concentration [8]: 8 µg/mL | Minimum Inhibitory Concentration [9]: 8 µg/mL | Minimum Inhibitory Concentration [10]: 32 µg/mL | Minimum Inhibitory Concentration [11]: 16 µg/mL | Minimum Inhibitory Concentration [12]: 8 µg/mL | Minimum Inhibitory Concentration [13]: 16 µg/mL | Minimum Inhibitory Concentration [14]: 8 µg/mL | Minimum Inhibitory Concentration [15]: 8 µg/mL | Minimum Inhibitory Concentration [16]: 32 µg/mL | Minimum Inhibitory Concentration [17]: 16 µg/mL | Minimum Inhibitory Concentration [18]: 4 µg/mL | Minimum Inhibitory Concentration [19]: 8 µg/mL | Minimum Inhibitory Concentration [20]: > 256 µg/mL | Minimum Inhibitory Concentration [21]: > 256 µg/mL | Minimum Inhibitory Concentration [22]: 8 µg/mL | Minimum Inhibitory Concentration [23]: 4 µg/mL | Minimum Inhibitory Concentration [24]: 128 µg/mL | toxicity [25]: relatively non-toxic | Minimum Inhibitory Concentration [26]: 16 µg/mL | activity against the gram negative organisms [27]: high degree of activity | Minimum Inhibitory Concentration [28]: 8 µg/mL | Minimum Inhibitory Concentration [29]: 4 µg/mL | Minimum Inhibitory Concentration [30]: 16 µg/mL | Minimum Inhibitory Concentration [31]: 32 µg/mL | solubility in the higher alcohols and most common organic solvents ([32]; higher alcohols and most common organic solvents): substantially insoluble | solubility in methanol ([32]; methanol): slightly soluble | solubility in water ([32]; water): water soluble | Minimum Inhibitory Concentration [33]: 16 µg/mL | Minimum Inhibitory Concentration [34]: 8 µg/mL | Minimum Inhibitory Concentration [35]: > 256 µg/mL | Minimum Inhibitory Concentration [36]: 256 µg/mL | Minimum Inhibitory Concentration [37]: 256 µg/mL | Minimum Inhibitory Concentration [38]: 64 µg/mL | Minimum Inhibitory Concentration [39]: 8 µg/mL | Minimum Inhibitory Concentration [40]: 8 µg/mL | Minimum Inhibitory Concentration [41]: 64 µg/mL | Minimum Inhibitory Concentration [42]: 32 µg/mL
